Reference: ChEMBL document CHEMBL4354790, “Tailored therapeutics based on 1,2,3-1H-triazoles: a mini review” (Medchemcomm, 2019)
Where a SMILES comes first, the peptide text is derived from it.

How the values were obtained:
[1] = molecular target: T1, Tyrosinase (Agaricus bisporus, UniProt O42713); experiment: Inhibition of mushroom tyrosinase using L-DOPA as substrate
T1 sequence (O42713 whole entry): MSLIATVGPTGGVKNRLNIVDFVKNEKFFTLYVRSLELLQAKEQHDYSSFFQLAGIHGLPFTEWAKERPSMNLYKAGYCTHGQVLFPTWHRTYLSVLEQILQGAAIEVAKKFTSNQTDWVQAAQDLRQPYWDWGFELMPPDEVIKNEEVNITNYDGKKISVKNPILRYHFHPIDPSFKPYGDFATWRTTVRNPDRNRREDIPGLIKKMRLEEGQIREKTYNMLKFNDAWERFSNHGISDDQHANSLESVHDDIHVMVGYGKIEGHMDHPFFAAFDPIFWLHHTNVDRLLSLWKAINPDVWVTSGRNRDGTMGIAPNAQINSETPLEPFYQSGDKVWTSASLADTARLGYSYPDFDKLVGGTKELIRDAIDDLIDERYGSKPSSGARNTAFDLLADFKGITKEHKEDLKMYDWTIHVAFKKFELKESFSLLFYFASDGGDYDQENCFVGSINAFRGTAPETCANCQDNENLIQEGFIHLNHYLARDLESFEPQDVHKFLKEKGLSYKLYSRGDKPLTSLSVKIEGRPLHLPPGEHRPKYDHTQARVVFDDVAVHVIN

[2] = molecular target: Telomerase reverse transcriptase (Homo sapiens, UniProt O14746); experiment: Inhibition of telomerase activity in human A2780 cells incubated for 10 mins by SYBR Green 1 staining based TRAP assay; assay type: cell-based
Sequence of Telomerase reverse transcriptase (O14746 whole entry): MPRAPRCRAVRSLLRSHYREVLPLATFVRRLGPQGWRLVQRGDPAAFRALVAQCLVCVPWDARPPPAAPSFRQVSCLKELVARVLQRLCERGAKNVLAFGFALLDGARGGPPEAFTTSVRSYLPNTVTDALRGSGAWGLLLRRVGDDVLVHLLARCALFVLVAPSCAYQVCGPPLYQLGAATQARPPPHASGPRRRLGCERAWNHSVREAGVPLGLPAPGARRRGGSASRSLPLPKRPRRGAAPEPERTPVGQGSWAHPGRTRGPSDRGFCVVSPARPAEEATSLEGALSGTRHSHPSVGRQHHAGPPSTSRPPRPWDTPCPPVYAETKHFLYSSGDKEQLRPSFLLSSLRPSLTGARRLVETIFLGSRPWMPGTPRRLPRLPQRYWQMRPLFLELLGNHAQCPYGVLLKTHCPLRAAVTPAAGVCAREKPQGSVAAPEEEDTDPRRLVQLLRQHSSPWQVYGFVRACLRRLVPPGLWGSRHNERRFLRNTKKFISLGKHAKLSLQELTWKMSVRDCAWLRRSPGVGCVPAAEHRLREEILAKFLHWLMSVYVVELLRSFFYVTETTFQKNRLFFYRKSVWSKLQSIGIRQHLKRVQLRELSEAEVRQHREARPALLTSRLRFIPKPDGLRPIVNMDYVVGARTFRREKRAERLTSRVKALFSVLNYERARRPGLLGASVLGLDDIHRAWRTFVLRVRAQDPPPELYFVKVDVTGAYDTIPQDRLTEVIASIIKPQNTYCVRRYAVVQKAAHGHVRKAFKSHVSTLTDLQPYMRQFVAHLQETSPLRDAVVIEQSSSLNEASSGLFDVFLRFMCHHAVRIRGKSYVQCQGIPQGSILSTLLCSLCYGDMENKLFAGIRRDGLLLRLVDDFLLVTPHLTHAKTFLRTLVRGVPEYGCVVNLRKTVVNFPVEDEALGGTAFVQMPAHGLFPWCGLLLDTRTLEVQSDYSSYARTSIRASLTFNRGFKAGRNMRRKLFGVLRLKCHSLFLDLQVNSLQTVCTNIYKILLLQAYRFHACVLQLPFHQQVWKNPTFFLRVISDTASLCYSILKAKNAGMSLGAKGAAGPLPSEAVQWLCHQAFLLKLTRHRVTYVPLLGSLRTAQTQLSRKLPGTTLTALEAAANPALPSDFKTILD

[3] = molecular target: Protease (Human immunodeficiency virus 1, UniProt Q9YQ12); experiment: Inhibition of HIV-1 protease
Sequence of Protease (Human immunodeficiency virus 1, UniProt Q9YQ12) (Q9YQ12 whole entry): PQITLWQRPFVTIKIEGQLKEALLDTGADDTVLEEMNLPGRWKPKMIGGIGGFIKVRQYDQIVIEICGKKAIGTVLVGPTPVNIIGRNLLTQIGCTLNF

[4] = molecular target: Protease (Human immunodeficiency virus 1, UniProt Q9YQ12, V82A); experiment: Inhibition of HIV-1 protease V82A mutant
Sequence of Protease (Human immunodeficiency virus 1, UniProt Q9YQ12, V82A) (Q9YQ12 entry or part of it V82A): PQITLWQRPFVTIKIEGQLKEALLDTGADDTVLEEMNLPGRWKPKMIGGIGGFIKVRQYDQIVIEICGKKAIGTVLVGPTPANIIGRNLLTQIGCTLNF

[5] = molecular target: Protease (Human immunodeficiency virus 1, UniProt Q9YQ12, V82F); experiment: Inhibition of HIV-1 protease V82F mutant
Sequence of Protease (Human immunodeficiency virus 1, UniProt Q9YQ12, V82F) (Q9YQ12 entry or part of it V82F): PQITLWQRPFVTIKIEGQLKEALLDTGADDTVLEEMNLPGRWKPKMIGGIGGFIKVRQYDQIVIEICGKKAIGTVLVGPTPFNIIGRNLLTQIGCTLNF

[6] = molecular target: Protease (Human immunodeficiency virus 1, UniProt Q9YQ12, G48V); experiment: Inhibition of HIV-1 protease G48V mutant
Sequence of Protease (Human immunodeficiency virus 1, UniProt Q9YQ12, G48V) (Q9YQ12 entry or part of it G48V): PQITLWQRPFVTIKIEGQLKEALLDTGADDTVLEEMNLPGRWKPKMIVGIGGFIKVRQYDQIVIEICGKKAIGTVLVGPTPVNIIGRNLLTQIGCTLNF

[7] = molecular target: Carbonic anhydrase; experiment: Inhibition of carbonic anhydrase (unknown origin); assay type: protein assay, Homo sapiens
[8] = molecular target: Signal transducer and activator of transcription 3 (Homo sapiens, UniProt P40763); experiment: Inhibition of STAT3 (unknown origin)
Sequence of Signal transducer and activator of transcription 3 (P40763 whole entry): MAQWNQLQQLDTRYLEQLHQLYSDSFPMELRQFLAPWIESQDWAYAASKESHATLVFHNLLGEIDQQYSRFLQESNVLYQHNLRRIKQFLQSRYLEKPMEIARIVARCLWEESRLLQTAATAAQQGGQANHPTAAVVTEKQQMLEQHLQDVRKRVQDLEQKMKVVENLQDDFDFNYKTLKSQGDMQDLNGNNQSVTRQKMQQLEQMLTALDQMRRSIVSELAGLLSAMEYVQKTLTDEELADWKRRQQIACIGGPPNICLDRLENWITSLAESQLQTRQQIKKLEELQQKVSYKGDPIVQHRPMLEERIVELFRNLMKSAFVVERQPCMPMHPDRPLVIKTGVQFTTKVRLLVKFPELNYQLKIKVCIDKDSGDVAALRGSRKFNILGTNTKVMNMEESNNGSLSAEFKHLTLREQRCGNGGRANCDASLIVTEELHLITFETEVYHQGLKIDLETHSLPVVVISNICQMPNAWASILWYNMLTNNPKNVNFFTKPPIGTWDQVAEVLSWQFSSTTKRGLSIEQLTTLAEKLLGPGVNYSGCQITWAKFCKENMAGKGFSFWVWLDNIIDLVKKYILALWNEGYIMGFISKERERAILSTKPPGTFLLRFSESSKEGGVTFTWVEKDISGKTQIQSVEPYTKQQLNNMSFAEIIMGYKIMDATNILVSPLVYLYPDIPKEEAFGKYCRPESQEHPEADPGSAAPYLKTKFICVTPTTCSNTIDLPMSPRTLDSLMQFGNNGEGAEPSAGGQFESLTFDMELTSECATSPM

[9] = molecular target: D-amino-acid oxidase (Homo sapiens, UniProt P14920); experiment: Inhibition of human DAO
Sequence of D-amino-acid oxidase (P14920 whole entry): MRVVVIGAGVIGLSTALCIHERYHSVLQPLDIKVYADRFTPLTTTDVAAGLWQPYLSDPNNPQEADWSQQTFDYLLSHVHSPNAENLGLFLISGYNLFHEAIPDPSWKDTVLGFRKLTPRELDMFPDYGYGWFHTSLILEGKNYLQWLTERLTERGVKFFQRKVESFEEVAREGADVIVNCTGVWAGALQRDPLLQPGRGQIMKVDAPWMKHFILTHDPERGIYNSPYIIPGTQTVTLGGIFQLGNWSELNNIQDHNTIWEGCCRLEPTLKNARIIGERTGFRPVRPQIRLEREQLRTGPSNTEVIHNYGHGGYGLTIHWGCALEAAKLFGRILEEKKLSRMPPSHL

**Q.** With `CC(C)[C@@H]1NC(=O)[C@@H]2CCCN2C(=O)[C@H](Cc2ccc(O)cc2)NC(=O)[C@@H]2CCCN2C1=O` (cyclo(PVPY)) as the compound, how does the IC50 [1] read?
**A.** 1500 µM

**Q.** With `O=C(CCN1CCCCC1)Nc1ccc(-n2cc(-c3cccc(-c4cn(-c5ccc(NC(=O)CCN6CCCCC6)cc5)nn4)c3)nn2)cc1` as the compound, how does the EC50 [2] read?
**A.** 17.1 µM

**Q.** Which results are given for `COc1ccc(S(=O)(=O)N(CC(C)C)C[C@H](O)[C@@H](Cc2ccccc2)n2cc(COC(=O)N[C@H]3c4ccccc4C[C@H]3O)nn2)cc1`?
**A.** Ki [3]: 0.0017 µM; Ki [4]: 0.0017 µM; Ki [5]: 0.0017 µM; Ki [6]: 0.0017 µM

**Q.** For `CC(C)[C@H](C(=O)NCc1ccccc1)n1cc(-c2ccc(S(N)(=O)=O)cc2)nn1`, which Ki [7] is on record?
**A.** 0.0002 µM

**Q.** Which IC50 [1] does the source give for `CC(C)[C@H]1C(=O)N2CCC[C@H]2c2cn(nn2)[C@@H](Cc2ccc(OCc3ccccc3)cc2)C(=O)N2CCC[C@H]2c2cn1nn2` here?
**A.** 1600 µM

**Q.** For `O=C(CCN1CCCC1)Nc1ccc(-n2cc(-c3cccc(-c4cn(-c5ccc(NC(=O)CCN6CCCC6)cc5)nn4)c3)nn2)cc1`, which EC50 [2] is on record?
**A.** 13.3 µM

**Q.** With `COC(=O)[C@H](CCCCN)NC(=O)[C@@H](NC(=O)[C@@H](CCCCN)NC(=O)[C@@H](NC(=O)[C@@H](Cc1ccc(OP(=O)(O)O)cc1)NC(C)=O)C(C)C)[C@@H](C)O` as the compound, how does the Ki [8] read?
**A.** 21.9 µM

**Q.** With `CC(C)[C@@H]1NC(=O)[C@@H]2CCCN2C(=O)[C@H](Cc2ccc(OCc3ccccc3)cc2)n2cc(nn2)[C@@H]2CCCN2C1=O` as the compound, how does the IC50 [1] read?
**A.** 500 µM

**Q.** With `CCN(CC)CCC(=O)Nc1ccc(-n2cc(-c3cccc(-c4cn(-c5ccc(NC(=O)CCN(CC)CC)cc5)nn4)c3)nn2)cc1` as the compound, how does the EC50 [2] read?
**A.** 23.5 µM

**Q.** For `CC(=O)N[C@H](Cc1ccc(OP(=O)(O)O)cc1)C(=O)N[C@@H](C(=O)N[C@@H]1CCCCn2cc(nn2)C[C@H](C(=O)N[C@@H](Cc2ccccc2)C(N)=O)NC(=O)[C@H]([C@@H](C)O)NC1=O)C(C)C`, which Ki [8] is on record?
**A.** 7.3 µM

**Q.** `NS(=O)(=O)c1ccc(-c2cn([C@H](Cc3ccccc3)C(=O)NCCc3ccsc3)nn2)cc1` was tested. Which Ki [7] did it give?
**A.** 0.0002 µM

**Q.** For `COC(=O)/C(Cc1ccc(O)cc1)=N\OCCc1cn(CC(=O)NC(Cc2ccccc2)C(=O)O)nn1` (stereo not given), which Ki [9] is on record?
**A.** 1000 µM
